Reference: the NIST ThermoML archive (doi:10.1021/je034102r)

Assay: molar heat capacity at constant pressure
Conditions: 101.33 kPa, Liquid, heat bridge-scanning calorimeter

CCCCn1cc[n+](C)c1.F[P-](F)(F)(F)(F)F [1-butyl-3-methylimidazolium hexafluorophosphate]
Conditions	molar heat capacity at constant pressure [J/K/mol]
353.76 K	441.34
353.89 K	441.34
354.01 K	441.62
354.29 K	441.9
354.41 K	441.9
354.54 K	441.62
354.66 K	441.9
354.79 K	442.19
354.91 K	441.9
355.04 K	442.19
355.16 K	442.47
355.29 K	442.47
355.41 K	442.47
355.54 K	442.47
355.81 K	442.76
355.94 K	443.04
356.06 K	442.76
356.19 K	442.76
356.31 K	443.04
356.44 K	443.04
356.56 K	443.32
356.69 K	443.32
356.81 K	443.61
357.1 K	443.32
357.24 K	443.61
357.36 K	443.61
357.49 K	443.61
357.61 K	443.61
357.74 K	443.89
357.86 K	443.89
357.99 K	444.18
358.12 K	444.18
358.24 K	444.18
358.37 K	444.18
358.64 K	444.46
358.76 K	444.75
358.89 K	444.46
359.02 K	444.75
359.14 K	444.75
359.27 K	444.75
359.39 K	445.03
359.52 K	445.03
359.64 K	445.31
359.93 K	445.31
360.05 K	445.31
360.18 K	445.6
360.3 K	445.6
360.43 K	445.88
360.55 K	445.88
360.68 K	445.88
360.8 K	446.17
360.93 K	446.17
361.05 K	446.17
361.18 K	446.45
361.45 K	446.45
361.58 K	446.45
361.7 K	446.45
361.83 K	446.45
361.95 K	446.73
362.08 K	446.73
362.2 K	447.02
362.33 K	447.02
362.45 K	447.02
362.73 K	447.02
362.86 K	447.02
362.98 K	447.3
363.12 K	447.3
363.25 K	447.3
363.37 K	447.3
363.5 K	447.59
363.62 K	447.59
363.75 K	447.87
363.87 K	447.59
364 K	447.87
364.27 K	447.87
364.4 K	447.87
364.52 K	447.87
364.65 K	448.16
364.77 K	448.16
364.9 K	448.16
365.02 K	448.16
365.15 K	448.44
365.28 K	448.16
365.56 K	448.44
365.69 K	448.44
365.81 K	448.72
365.94 K	448.72
366.06 K	448.72
366.19 K	448.72
366.32 K	448.72
366.44 K	449.01
366.57 K	449.01
366.69 K	449.01
366.82 K	449.29
367.09 K	449.29
367.22 K	449.29
367.34 K	449.58
367.47 K	449.86
367.59 K	449.86
367.72 K	449.86
367.84 K	449.86
367.97 K	449.86
368.1 K	450.43
368.38 K	450.14
368.51 K	450.43
368.63 K	450.43
368.76 K	450.43
368.88 K	450.43
369.02 K	450.43
369.15 K	450.43
369.27 K	450.43
369.4 K	450.71
369.53 K	450.71
369.65 K	450.71
369.92 K	452.13
370.05 K	452.13
370.17 K	451.85
370.3 K	451.28
370.43 K	451.57
370.55 K	451.28
370.68 K	451.28
370.8 K	451.57
370.93 K	451.57
371.21 K	451.85
371.34 K	452.13
371.47 K	452.13
371.59 K	451.85
371.72 K	452.13
371.84 K	451.85
371.97 K	452.13
372.09 K	452.13
372.22 K	452.13
372.35 K	452.13
372.47 K	452.7
372.74 K	452.99
372.87 K	452.7
372.99 K	452.7
373.12 K	452.7
373.25 K	452.99
373.37 K	453.56
373.5 K	453.84
373.62 K	453.56
373.75 K	452.7
374.03 K	453.27
374.16 K	453.27
374.29 K	453.27
374.41 K	453.27
374.54 K	454.41
374.67 K	455.26
374.79 K	454.69
374.92 K	454.69
375.06 K	454.69
375.18 K	454.41
375.31 K	454.12
375.58 K	453.84
375.71 K	453.84
375.83 K	453.56
375.96 K	453.84
376.09 K	454.69
376.21 K	455.83
376.34 K	455.83
376.46 K	455.54
376.59 K	454.98
376.87 K	454.41
376.99 K	454.41
377.12 K	454.41
377.25 K	454.98
377.37 K	455.26
377.5 K	454.98
377.63 K	454.69
377.75 K	454.69
377.88 K	454.98
378 K	455.26
378.13 K	455.54
378.4 K	455.54
378.53 K	455.26
378.65 K	455.54
378.78 K	455.54
378.91 K	455.54
379.03 K	455.54
379.16 K	455.83
379.29 K	456.11
379.41 K	457.53
379.7 K	456.11
379.83 K	456.11
379.95 K	456.4
380.08 K	456.68
380.21 K	456.68
380.33 K	456.68
380.46 K	456.68
380.59 K	456.68
